Source: patent US9249466B2, “Methods and compositions for treating cancer” (Agency for Science, Technology and Research, priority 2010, dated 2016)
Entries after “also recorded” stand apart in the source; their conditions may differ.

Tests used:
DLD1 and SW480 cells [1] = experiment: Cell viability of DLD1 and SW480 cells under drug combinations; type: cell-based, human; conditions: SW480 and DLD1 cells, BI 2536 10 nM plus BEZ 235 10 nM
Experimental: (§1) Cell viability was measured using CellTiter-Glo™ Luminescent Cell Viability Assay (Promega).
(§2) In brief, 1000 cells were seeded in 96-well plate and the cell number was measured following manufacturer's instruction. To detect the senescence in DLD1-tet on cells, cells were treated with Dox for 48 hr and SA-β-Gal staining was performed according to the protocol of Senescence Detection kit (BioVision). Cell cycle analysis was done by DNA content quantification.

DLD1 and SW480 cells [2] = experiment: Monolayer dense foci / colony formation of DLD1 and SW480 cells; type: cell-based, human; conditions: monolayer colony formation, 12 days
Experimental: For DLD1 and HCT116 inducible cells foci formation assay, 1×10^4 cells were seeded on 6-well plate with or without treatment with Dox or rapamcycin. […]

HEK-TERV cells = experiment: Apoptotic assay in HEK-TERV cells; type: cell-based, human; conditions: 10 nM for 24 h; PDK1-transformed vs control or PI3K (E545)-transformed cells
SW480 and DLD1 cells = experiment: Apoptotic assay in SW480 and DLD1 cells; type: cell-based, human; conditions: BI2536 10 nM plus BEZ 235 100 nM, 48 hr
HEK-PDK1 cells = experiment: Tumor sphere formation in HEK-PDK1 cells; type: cell-based, human; conditions: 5 nM BI2536 for 7 days
CRC cell lines = experiment: Cell viability (CellTiter-Glo): rapamycin-induced growth inhibition in CRC cell lines; type: cell-based; conditions: Homo sapiens, 120 h; 10 nM rapamycin, 5 days treatment, all examined CRC cell lines; read-out: rapamycin-induced growth inhibition compared to untreated cells
Experimental: as §1, §2

DLD1-PPP2R2B cells [3] = experiment: Cell viability assay in DLD1-PPP2R2B cells; type: cell-based, human; conditions: 10 nM rapamycin, PPP2R2B re-expressed by Dox vs no Dox, 5 days
Experimental: as §1, §2

DLD1-PPP2R2B cells [4] = experiment: Dense foci / colony formation assay in DLD1-PPP2R2B cells; type: cell-based, human; conditions: 10 nM rapamycin, PPP2R2B re-expressed by Dox vs no Dox, 14 days
Experimental: For DLD1 and HCT116 inducible cells foci formation assay, 1×10^4 cells were seeded on 6-well plate with or without treatment with Dox or rapamcycin. Cells were grown for 2 weeks and the surviving colonies were stained with gentian violet after methanol fixation, and visible colonies (>50 cells) were counted.

DLD1-PPP2R2B cells [5] = experiment: Cell cycle analysis by flow cytometry in DLD1-PPP2R2B cells; type: cell-based, human; conditions: rapamycin added to Dox-induced PPP2R2B expression, 48 h
Experimental: as §2
The cells were fixed with 70% ethanol and stained with propidium iodide (50 μg/ml) staining. The stained cells were analyzed by FACScalibur (BD Bioscience) and quantified by using CellQuest software (BD bioscience).

DLD1-PPP2R2B cells [6] = experiment: Xenograft tumor growth of DLD1-PPP2R2B cells in nude mice; type: in vivo, BALB/c nude mice
Experimental: The female athymice BALB/c nude mice (5-8 week-old) were housed in the Biological Resource Centre. Mice were implanted subcutaneously in both sides of flank with 3×10^6 DLD1-PPP2R2B or control DLD1 cells, respectively.
When tumors reached ˜70 mm^3, the mice were divided two groups (6 mice per group) and the Doxycyclin was administrated by oral gavages at 100 mg/kg daily. Tumor progress was monitored with whole body weight and tumor size for every other day. For combination treatment with rapamycin and doxycycline, the same dose of doxycyclin was given at every other day and rapamycin was administered by intraperitoneal injection at 4 mg/kg at Day 3, 5, 7 and 11.
Tumor diameters were measured every 3-4 days with caliper and tumor volumes were calculated from 7-9 mice per data time point. All animal work was performed in accordance with animal experiments guidelines of Singapore.

p-Myc(T58/S62) = experiment: Immunoblot analysis of Myc phosphorylation; type: cell-based, human
p-AKT (S473) = experiment: Immunoblot analysis of AKT S473 phosphorylation; type: cell-based, human
[7] = tested on: p70S6K and S6 phosphorylation; experiment: Immunoblot analysis of p70S6K and S6 phosphorylation; type: cell-based, human; conditions: DLD1 vector control and PPP2R2B expressing cells, 10 nM rapamycin
HCT116 and DKO cells = experiment: Rapamycin-induced growth inhibition in HCT116 and DKO cells; type: cell-based, human; conditions: DKO cells compared to parental HCT116 cells
Experimental: as §1, §2

[8] = tested on: PPP2R2B-expressing cancer cell lines; experiment: Rapamycin-induced growth inhibition in PPP2R2B-expressing cancer cell lines; type: cell-based, human; conditions: 10 nM rapamycin, 5 days; compared to CRC cell lines
Experimental: as §1, §2

cytochrome P-450 3A = conditions: cited from earlier work
[9] = bile of treated rats; cited from earlier work
[10] = animal models; cited from earlier work
Candida albicans = conditions: in vitro and in vivo; cited from earlier work
[11] = tested on: huntingtin accumulation and cell death; conditions: cell models of HD; cited from earlier work
neurodegeneration = conditions: fly model of HD; cited from earlier work
[12] = tested on: experimental allergic encephalomyelitis; conditions: model for multiple sclerosis; cited from earlier work
adjuvant arthritis = conditions: model for rheumatoid arthritis; cited from earlier work
IgE-like antibodies = conditions: in vivo; cited from earlier work
[13] = DLD1 cells serum starved 48 h, then 10 nM rapamycin

SMILES: CC[C@@H]1C(=O)N(C)c2cnc(Nc3ccc(C(=O)NC4CCN(C)CC4)cc3OC)nc2N1C1CCCC1 [BI2536]
- growth inhibition in combination with BEZ235 (DLD1 and SW480 cells [1]): strong synergistic growth inhibition
- long term colony formation in combination with BEZ235 (DLD1 and SW480 cells [2]): strong synergistic
- apoptosis (HEK-TERV cells): selectively induced apoptosis in PDK1-transformed cells
- apoptosis in combination with BEZ235 (SW480 and DLD1 cells): strong synergistic
- tumor sphere formation (HEK-PDK1 cells): blocks the tumor sphere formation; also recorded: abolished the PDK1-driven tumorspheres formation

SMILES: CO[C@H]1C[C@@H]2CC[C@@H](C)[C@@](O)(O2)C(=O)C(=O)N2CCCC[C@H]2C(=O)O[C@H]([C@H](C)C[C@@H]2CC[C@@H](O)[C@H](OC)C2)CC(=O)[C@H](C)/C=C(\C)[C@@H](O)[C@@H](OC)C(=O)[C@H](C)C[C@H](C)/C=C/C=C/C=C/1C [rapamycin, (3S,6R,7E,9R,10R,12R,14S,15E,17E,19E,21S,23S,26R,27R,34aS)-9,10,12,13,14,21,22,23,24,25,26,27,32,33,34,34a-hexadecahydro-9,27-dihydroxy-3-[(1R)-2-[(1S,3R,4R)-4-hydroxy-3-methoxycyclohexyl]-1-methylethyl]-10,21-dimethoxy-6,8,12,14,20,26-hexamethyl-23,27-epoxy-3H-pyrido[2,1-c][1,4]-oxaazacyclohentriacontine-1,5,11,28,29(4H,6H,31H)-pentone]
- inhibition at 0.01 µM (CRC cell lines): < 10%
- rapamycin-induced growth inhibition (cell viability assay) (DLD1-PPP2R2B cells [3]): much more effective
- rapamycin-induced growth inhibition (colony formation assay) (DLD1-PPP2R2B cells [4]): much more effective
- cell cycle G2 arrest (DLD1-PPP2R2B cells [5]): markedly augmented
- xenograft tumor growth, single treatment (DLD1-PPP2R2B cells [6]; rapamycin 4 mg/kg i.p. or Dox 100 mg/kg oral alone, every other day): moderately attenuated
- xenograft tumor growth, combination of rapamycin and Dox (DLD1-PPP2R2B cells [6]; rapamycin 4 mg/kg plus Dox 100 mg/kg (PPP2R2B re-expression)): strong tumor growth inhibition
- Myc phosphorylation (p-Myc(T58/S62); DKO (DNMTs-deficient HCT116) cells, 10 nM rapamycin): did not respond to rapamycin
- rapamycin-induced Myc phosphorylation under serum starvation (p-Myc(T58/S62); [13]): no significant effect
- Myc phosphorylation and protein accumulation (p-Myc(T58/S62); DLD1 cells, 10 nM rapamycin, 48 hr): strong induction of Myc phosphorylation and protein accumulation; also recorded: induces Myc phosphorylation
- time at which the Myc response occurred (p-Myc(T58/S62); DLD1 cells, 10 nM rapamycin, time course): 4 h
- Myc phosphorylation (p-Myc(T58/S62); HCT116 cells, 10 nM rapamycin): strongly induced
- Myc phosphorylation (p-Myc(T58/S62); PPP2R2B-expressing cancer cell lines (HepG2, HepB3, 786-O, Caki2, OVCAR3, OVCAR5, SK-OV-3, U2OS)): none of these PPP2R2B-expressing cancer cell lines showed an induction of Myc phosphorylation
- Myc phosphorylation (p-Myc(T58/S62); all examined CRC cell lines, rapamycin 48 hr): marked induction of Myc phosphorylation
- AKT S473 phosphorylation (p-AKT (S473); CRC cells (DLD1), 10 nM rapamycin): induction of AKT S473 phosphorylation
- rapamycin-induced AKT S473 phosphorylation under serum starvation (p-AKT (S473); [13]): abolished
- AKT S473 phosphorylation (p-AKT (S473); HCT116 and DKO cells, 10 nM rapamycin): similarly induced
- AKT S473 phosphorylation (p-AKT (S473); PPP2R2B-expressing cancer cell lines): consistent induction of AKT S473 phosphorylation
- p70S6K and S6 phosphorylation [7]: effectively abolished
- sensitivity to rapamycin treatment (HCT116 and DKO cells): more sensitive
- sensitivity to rapamycin [8]: much more sensitive
- number of metabolites formed (cytochrome P-450 3A): at least six metabolites
- number of hydroxylated and demethylated metabolites detected [9]: > 16
- nephrotoxicity [10]: no nephrotoxicity has been detected
- antifungal activity (Candida albicans): antifungal activity
- huntingtin accumulation and cell death [11]: attenuates huntingtin accumulation and cell death
- neurodegeneration (neurodegeneration): protects against neurodegeneration
- efficacy [12]: effective
- efficacy (adjuvant arthritis): effective
- formation of IgE-like antibodies (IgE-like antibodies): effectively inhibited
